According to PMC6086658, “Unified mechanisms for self-RNA recognition by RIG-I Singleton-Merten syndrome variants” (eLife, 2018):
Positions count from the first letter of the chain named. Like-named read-outs stand apart in the source and are kept apart here.

What was measured:
RIG-I = target: T1, RIG-I (Homo sapiens, UniProt O95786); test: MANT-nucleotide binding, tryptophan fluorescence FRET; settings: absence of RNA; full-length His-RIG-I; n = 4; read-out: Affinity (KD) to RIG-I
T1 construct: Recombinant full-length human RIG-I or RIG-I single amino acid mutants (1–925, N-terminal His-tag); made in house; host or cells: High Five (Trichoplusia ni) insect cells, baculovirus, pFBDM vector
T1 sequence (O95786 1-925): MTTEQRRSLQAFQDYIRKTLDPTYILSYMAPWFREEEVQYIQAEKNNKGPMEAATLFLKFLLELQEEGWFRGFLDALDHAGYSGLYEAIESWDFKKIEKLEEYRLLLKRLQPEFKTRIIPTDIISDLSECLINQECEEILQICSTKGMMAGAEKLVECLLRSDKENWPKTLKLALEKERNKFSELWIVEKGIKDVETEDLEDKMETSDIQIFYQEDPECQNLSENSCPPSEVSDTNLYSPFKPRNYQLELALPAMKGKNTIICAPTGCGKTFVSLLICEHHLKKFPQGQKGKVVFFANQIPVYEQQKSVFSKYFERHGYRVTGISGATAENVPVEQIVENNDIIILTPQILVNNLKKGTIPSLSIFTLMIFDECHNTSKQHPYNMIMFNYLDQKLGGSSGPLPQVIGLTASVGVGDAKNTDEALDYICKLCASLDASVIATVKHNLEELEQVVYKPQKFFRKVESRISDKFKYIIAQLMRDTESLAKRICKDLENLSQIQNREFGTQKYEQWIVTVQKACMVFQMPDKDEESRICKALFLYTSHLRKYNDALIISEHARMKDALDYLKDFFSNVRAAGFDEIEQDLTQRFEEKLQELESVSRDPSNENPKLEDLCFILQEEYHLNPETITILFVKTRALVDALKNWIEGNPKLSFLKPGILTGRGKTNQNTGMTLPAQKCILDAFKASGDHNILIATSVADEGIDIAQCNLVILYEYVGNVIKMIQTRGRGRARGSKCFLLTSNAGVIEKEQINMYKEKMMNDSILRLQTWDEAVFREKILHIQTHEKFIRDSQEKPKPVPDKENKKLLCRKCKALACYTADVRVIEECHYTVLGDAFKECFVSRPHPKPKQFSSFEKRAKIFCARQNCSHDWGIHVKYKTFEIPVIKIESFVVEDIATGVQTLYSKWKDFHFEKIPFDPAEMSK
Procedure: (§1) Binding of MANT-ATP and MANT-ATPγS to different full-length RIG-I mutants (1–925, N-terminal His-tag) was determined via Förster resonance energy transfer from RIG-I to MANT-ATP (Jena Bioscience, Jena, Germany). […] Fluorescence of MANT-ATP was measured in a TECAN M1000 microplate reader at λex/em = 290/448 nm, gain = 170 using an average of five reads per well. Assays were performed four times in independent experiments using the same protein purification batch. For determination of affinities fluorescence values were fitted to Equation (1) using R, where y is the fluorescence, [P] is the protein concentration, Bmax is the maximal fluorescence and KD is the dissociation constant. Fitting was performed globally on all available datasets. Representative values in figures are mean values ± SD.

RIG-I E373Q = target: T2, RIG-I E373Q (Homo sapiens, UniProt O95786, E373Q); test: as above; settings: n = 4
T2 construct: different full-length RIG-I mutants (1–925, N-terminal His-tag); made in house; host or cells: High Five (Trichoplusia ni) insect cells, baculovirus, pFBDM vector
T2 sequence (O95786 1-925 E373Q): T1 sequence (O95786 1-925) with E373Q
Procedure: as §1

Kd (RIG-I): 72 ± 13 µM | Kd (RIG-I E373Q; absence of RNA, read-out: Affinity (KD) to RIG-I E373Q): 72 ± 13 µM | Kd (RIG-I E373Q; presence of equimolar 14mer dsRNA, read-out: Affinity (KD) to RIG-I E373Q + RNA): 28 ± 5 µM
Substance: MANT-ATP
